Test results: patent US5382593A, “New 3-(hydroxybenzylidenyl)-indolin-2-ones” (Adir et Compagnie, priority 1992, dated 1995)

Key:
[1] = system: cyclooxygenase of human granulocytes; assay: Inhibition of PGE2 secretion (cyclooxygenase) by human granulocytes stimulated by calcium ionophore A23187; assay type: cell-based; settings: concentration of 10^-5 M, A23187 5×10^-6 M, read-out: inhibition of the production of PGE2
Description: The aim of this study is to measure the inhibiting activity of the compounds of the invention on the secretion of prostaglandin E2 (PGE2), one of the principal prostanoids produced by the cyclooxygenase of human granulocytes stimulated by the calcium ionophore A23187.
Human venous blood from blood donors who have not taken medicaments for 2 weeks is drawn into polypropylene tubes containing 1 volume of anti-coagulant (2.73% citric acid, 4.48% sodium citrate, 2% glucose) per 10 volumes of blood.
In the hour following taking the samples, 6% dextran is added to the blood (0.3 cm^3 /cm^3 of blood). After incubation for 30 min. at 37° C., the plasma rich in white corpuscles is centrifuged at a speed of 100 g for 5 min. at 4° C. […]
After centrifugation at a speed of 420 g for 30 min. at 4° C., the sediment rich in granulocytes is resuspended in 5 cm^3 of phosphate buffer and centrifuged at a speed of 100 g for 5 min. at 4° C. Finally, the granulocytes are counted and the density is adjusted to 3×10^6 cells/cm^3 of phosphate buffer.
The cells (3×10^6 cells/cm^3) are preincubated at 37° C. for 15 min. in the absence or presence of the products to be tested at the desired concentration. […] The base level is measured using cells without either the products to be tested or A23187. […]
The quantity of PGE2 produced is measured by a radioimmunological assay (RIA). […]

[2] = system: lipoxygenase, human polynuclear cells; assay: Inhibition of LTB4 production (lipoxygenase) by human polynuclear cells activated by calcium ionophore A 23187; assay type: cell-based; settings: concentration of 10^-5 M
Protocol: The production of the principal prostanoid, resulting from lipoxygenase, produced by human polynuclear cells: leucotriene B4 (LTB4) is measured by a radioimmunological assay.

CC(C)(Sc1cc(C(C)(C)C)c(O)c(C(C)(C)C)c1)Sc1cc(C(C)(C)C)c(O)c(C(C)(C)C)c1 [probucol]
inhibition at 10 µM [1]: ~40%
inhibition at 10 µM [2]: ~40%
